Experimental data published in patent US20070105810A1, “THERAPEUTICS” (priority 2003, published 2007).
“Also recorded” adds a separate entry of the source.

Assays:
TMBP-GFP cells = test: Intravital videomicroscopy: motility of TMBP-GFP cells in the spleen; type: in vivo, rat; conditions: 3 d after T cell transfer, 6.5 μm/min in DMSO-treated controls, preliminary
Description: Intravital videomicroscopy of the spleen of vehicle (DMSO, left) A or BZ194 B-treated animals 3 d after T cell transfer. The ratio between stationary and motile MBP-specific GFP T cells (upper graphs) and cell trajectories (lower graphs, 10 min analysis) are shown. Stationary cells are defined as cells moving less than 10 μm in 10 minutes.
Animals were anesthetized by intraperitoneal injection of xylazine/ketamine (10 mg/kg and 50 mg/kg, respectively), with reapplied doses (1 mg/kg xylazine/5 mg/kg ketamine) administered as required. Adequate oxygenation was ensured by an oxygen (95% O2/5% CO2) mask fixed on the animal's snout. Body temperature was controlled by a heated pad. For spleen imaging temperature and moistness controlled chambers were constructed for inverted microscope settings. Surgically exposed spleens with intact vasculature were carefully placed into the chambers superfused with carbogenated HBSS (95% O25% CO2).
Time-lapse recordings were performed using an inverted microscope (Zeiss, Axiovert 200M) equipped with a 20×, 0.4 NA objective (Zeiss). Images were acquired using a Coolsnap-HQ camera (Photometrics, Roper Scientific, Tuscon, Ariz.) in 30 s time intervals and processed by MetaMorph (Visitron Systems, Puchheim, Germany). Image J software (freeware, provided by Wayne Rasband, NIH) was used to evaluate cell trajectories and velocity.

[1] = tested on: T cell receptor/CD3 complex mediated Ca2+ signalling; test: T cell receptor/CD3 complex mediated Ca2+ signalling in human T cells; type: cell-based
Description: Intact Jurkat T-lymphocytes were loaded with fura2/AM. Ratiometric determination of [Ca^2+]i was carried out in cell suspension in a Hitachi F2000 fluorometer at room temperature at excitation wavelengths of 340 and 380 nm (alternating) and an emission wavelength of 495 nm. Each experiment was calibrated by addition of Triton X100 (10% v/v final concentration) to obtain the maximal ratio and subsequent addition of 4 mM EGTA/40 mM Tris-base to obtain the minimal ratio.
[Ca^2+]i was measured by using the fluorescent indicator Fura2/AM. In brief, 10^7 cells were loaded with Fura2/AM, and fluorescence was determined in batches of 1.5×10^6 cells with an Hitachi F-2000 fluorimeter at excitation and emission wavelengths of 340 and 380 nm (exc.) and 505 nm (em.), respectively. Measurements were carried out at 20° C. At the end of each single measurement maximal and minimal ratios were determined by addition of Triton X-100 and EGTA/Tris.

Solubility = type: physicochemical; conditions: excluded intravenous application
OVA-specific T cells = test: Proliferation of cultured OVA-specific T cells; type: cell-based
[2] = Tolerability of intraperitoneal injection in Lewis rats; type: in vivo
Text: Limited solubility of BZ194 excluded intravenous application due to embolic complications.

rat MBP-specific T cells = test: Cytokine (IL2 mRNA) expression of in vitro-cultured MBP-specific T cells, quantitative PCR; type: cell-based; conditions: IL2 quantitative PCR after 48 h
Description: Cells were stimulated in presence of MBP-pulsed irradiated APCs and increasing concentrations of BZ194. After 48 h cells were collected for cytofluorometric cell count A and RNA extraction was performed for quantitative PCR analysis (IL2) B. Effect of BZ194 on pre-activated T cell blasts C. Amplification of MBP-specific T cells which had been incubated before in the presence of DMSO or 0.5 mM or 1 mM BZ194 D.
mRNA was extracted using standard protocols (Sigma-Aldrich) and reversed to cDNA (Invitrogen). Taqman analysis was performed as reported (Flügel et al. 2001, Immunity) using ABI Prim 7700 Sequence Detector “Taqman” (PE Applied Biosystems). The expression of a housekeeping gene (b-actin) was set into relation to the specific mRNA. Data were obtained by independent duplicate measurements.
BZ194 strongly influenced the function of rat MBP-specific T cells in vitro and in vivo. Proliferation and cytokine expression of the T cells was tested in vitro after incubation with irradiated MBP-pulsed thymic antigen presenting cells (in rats the commonly used APC type, ref. 5). […] Additionally, the expression of cytokine production by the T cells was reduced (FIG. 18B). Importantly, these effects were not due to toxicity of BZ194.

[3] = tested on: IP3-induced Ca2+ signal in Jurkat T cells; test: Ca2+ signalling evoked by microinjection of IP3 in Jurkat T cells; type: cell-based, human; conditions: co-injection of BZ52 1 mM with IP3 4 μM
Description: NAADP (final concentration 100 nM), IP3 (final concentration 4 μM), and BZ52 (final concentration 1 mM) were injected into single Jurkat T cells while [Ca^2+]i was analyzed by Ca^2+ imaging. Data are presented as mean±SEM (n=4 to 13).
The Jurkat T cells were loaded with fura-2/AM and kept in the dark at room temperature until use. Glass coverslips were coated first with BSA (5 mg/ml) and subsequently with poly-L-lysine (0.1 mg/ml). Small chamber slides consisting of a rubber O-ring were sealed on thin (0.1 mm) glass coverslips by silicon grease. Then, 60 μl buffer A containing 140 mM NaCl, 5 mM KCl, 1 mM MgSO4, 1 mM CaCl2, 1 mM NaH2PO4, 5.5 mM glucose, and 20 mM HEPES (pH 7.4), and 40 μl cell suspension (2*10^6 cells/ml) suspended in the same buffer were added into the small chamber and the coverslip was mounted on the stage of a fluorescence microscope (Leica DM IRE2).
Ratiometric Ca^2+ imaging was performed as described earlier. In brief, we used an Improvision imaging system (Heidelberg, Germany) built around the Leica microscope at 100-fold magnification. Illumination at 340 and 380 nm was carried out using a monochromator system (Polychromator IV, TILL Photonics, Graefelfing, Germany). Images were taken with a gray-scale CCD camera (type C4742-95-12ER; Hamamatsu, Enfield, United Kingdom; operated in 8-bit mode). […]

Structure (SMILES)	average velocity of TMBP-GFP cells (TMBP-GFP cells) [μm/min]	TCR/CD3 complex mediated Ca2+ signalling [1]	solubility (Solubility)	proliferation (OVA-specific T cells)	adverse effect ([2]; higher amounts of BZ194 i.p.)	tolerability (inspection, weight development, immune cell count) ([2]; i.p., solubilized in DMSO, 180 mg/kg, 5 days)	cytokine (mRNA) production in vitro (rat MBP-specific T cells)	IP3-induced Ca2+ signal [3]
CCCCCCCCNC(=O)C[n+]1cccc(C(=O)O)c1.[Br-] [BZ194, 3-Carboxy-1-Octylcarbamoylmethyl-Pyridinium]	3.5	partially blocked	Limited	anti-proliferative effect	occasionally induced peritonitis	well tolerated	suppressed; also recorded: reduced	
CCCCN(CCCC)C(=O)C[n+]1cccc(C(=O)O)c1 [BZ52, 3-Carboxy-1-dibutylcarbamoylmethyl-pyridinium]								no difference
